PMC7714403 (JCI Insight, 2020)
Read-outs that look alike come from different tables or passages of the source.

Key:
Assay in all cases: KiNativ, MOLM13 live cells
Type in all cases: cell-based
[1] = target: AurB (Homo sapiens, UniProt Q96GD4); conditions: MOLM-13; 100 nM, 2 hours; Lys1; read-out: Inhibition vs DMSO
Method: (§1) Samples were analyzed by KiNativ in situ kinase profiling by ActivX Biosciences.

[2] = target: CDK2 (Homo sapiens, UniProt P24941); conditions: 100 nM, 2 hours
Method: as §1

[3] = target: SGK3 (Homo sapiens, UniProt Q96BR1); conditions: MOLM-13; 100 nM, 2 hours; Lys1; read-out: Inhibition vs DMSO
Method: as §1

[4] = target: FAM20B (Homo sapiens, UniProt O75063); conditions: MOLM-13; 100 nM, 2 hours; ATP; read-out: Inhibition vs DMSO
Method: as §1

[5] = target: ULK3 (Homo sapiens, UniProt Q6PHR2); conditions: 100 nM, 2 hours; Lys1
Method: as §1

[6] = target: PIK3CB (Homo sapiens, UniProt P42338); conditions: MOLM-13; 100 nM, 2 hours; ATP; read-out: Inhibition vs DMSO
Method: as §1

[7] = target: T1, GCN2 domain2 (Homo sapiens, UniProt Q9P2K8); conditions: MOLM-13, 2 h, 100 nM
T1 construct: GCN2 domain2
T1 sequence (Q9P2K8 whole entry, the tested form may be a part): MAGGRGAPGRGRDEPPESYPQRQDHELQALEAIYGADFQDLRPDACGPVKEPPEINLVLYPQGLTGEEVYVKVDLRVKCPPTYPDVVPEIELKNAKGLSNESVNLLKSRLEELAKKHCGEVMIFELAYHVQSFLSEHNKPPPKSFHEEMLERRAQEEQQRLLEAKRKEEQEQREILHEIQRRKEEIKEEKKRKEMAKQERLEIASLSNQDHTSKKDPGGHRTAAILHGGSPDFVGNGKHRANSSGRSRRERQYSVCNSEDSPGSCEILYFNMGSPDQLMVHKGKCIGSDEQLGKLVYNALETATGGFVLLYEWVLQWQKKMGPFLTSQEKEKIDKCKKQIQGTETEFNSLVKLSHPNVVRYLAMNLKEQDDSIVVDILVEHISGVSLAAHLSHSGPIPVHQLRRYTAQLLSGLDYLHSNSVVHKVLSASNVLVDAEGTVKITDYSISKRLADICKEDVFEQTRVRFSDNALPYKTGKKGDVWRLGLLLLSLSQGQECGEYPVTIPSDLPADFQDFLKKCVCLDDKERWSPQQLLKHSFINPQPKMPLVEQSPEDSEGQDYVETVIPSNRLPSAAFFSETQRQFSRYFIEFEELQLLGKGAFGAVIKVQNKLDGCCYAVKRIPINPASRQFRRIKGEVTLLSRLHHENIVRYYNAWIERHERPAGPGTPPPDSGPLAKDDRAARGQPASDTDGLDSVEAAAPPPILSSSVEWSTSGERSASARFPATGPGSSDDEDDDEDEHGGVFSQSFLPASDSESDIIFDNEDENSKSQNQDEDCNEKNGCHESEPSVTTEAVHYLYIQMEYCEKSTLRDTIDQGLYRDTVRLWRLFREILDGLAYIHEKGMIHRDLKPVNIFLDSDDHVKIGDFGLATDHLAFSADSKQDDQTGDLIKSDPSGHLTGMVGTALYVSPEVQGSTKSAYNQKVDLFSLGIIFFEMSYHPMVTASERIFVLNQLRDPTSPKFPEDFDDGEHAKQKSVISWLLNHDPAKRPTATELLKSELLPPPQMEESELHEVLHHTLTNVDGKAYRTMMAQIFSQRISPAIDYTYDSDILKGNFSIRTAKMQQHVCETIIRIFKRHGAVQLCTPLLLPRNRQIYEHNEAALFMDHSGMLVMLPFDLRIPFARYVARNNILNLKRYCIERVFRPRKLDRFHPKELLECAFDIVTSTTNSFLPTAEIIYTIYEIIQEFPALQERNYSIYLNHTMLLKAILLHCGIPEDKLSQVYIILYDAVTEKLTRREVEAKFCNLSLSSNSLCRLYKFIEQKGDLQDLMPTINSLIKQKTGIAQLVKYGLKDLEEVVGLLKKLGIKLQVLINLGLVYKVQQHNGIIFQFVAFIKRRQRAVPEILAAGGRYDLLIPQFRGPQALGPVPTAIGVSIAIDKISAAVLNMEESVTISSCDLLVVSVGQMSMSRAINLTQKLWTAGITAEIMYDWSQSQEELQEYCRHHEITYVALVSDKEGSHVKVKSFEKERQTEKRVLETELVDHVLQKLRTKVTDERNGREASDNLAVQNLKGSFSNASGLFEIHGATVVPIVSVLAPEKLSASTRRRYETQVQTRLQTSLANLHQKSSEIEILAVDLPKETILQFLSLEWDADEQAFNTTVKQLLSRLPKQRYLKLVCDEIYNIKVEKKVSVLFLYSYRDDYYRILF
Method: as §1

[8] = target: IRE1 (Homo sapiens, UniProt O75460); conditions: MOLM-13; 100 nM, 2 hours; Lys2; read-out: Inhibition vs DMSO
Sequence of IRE1 (O75460 19-977): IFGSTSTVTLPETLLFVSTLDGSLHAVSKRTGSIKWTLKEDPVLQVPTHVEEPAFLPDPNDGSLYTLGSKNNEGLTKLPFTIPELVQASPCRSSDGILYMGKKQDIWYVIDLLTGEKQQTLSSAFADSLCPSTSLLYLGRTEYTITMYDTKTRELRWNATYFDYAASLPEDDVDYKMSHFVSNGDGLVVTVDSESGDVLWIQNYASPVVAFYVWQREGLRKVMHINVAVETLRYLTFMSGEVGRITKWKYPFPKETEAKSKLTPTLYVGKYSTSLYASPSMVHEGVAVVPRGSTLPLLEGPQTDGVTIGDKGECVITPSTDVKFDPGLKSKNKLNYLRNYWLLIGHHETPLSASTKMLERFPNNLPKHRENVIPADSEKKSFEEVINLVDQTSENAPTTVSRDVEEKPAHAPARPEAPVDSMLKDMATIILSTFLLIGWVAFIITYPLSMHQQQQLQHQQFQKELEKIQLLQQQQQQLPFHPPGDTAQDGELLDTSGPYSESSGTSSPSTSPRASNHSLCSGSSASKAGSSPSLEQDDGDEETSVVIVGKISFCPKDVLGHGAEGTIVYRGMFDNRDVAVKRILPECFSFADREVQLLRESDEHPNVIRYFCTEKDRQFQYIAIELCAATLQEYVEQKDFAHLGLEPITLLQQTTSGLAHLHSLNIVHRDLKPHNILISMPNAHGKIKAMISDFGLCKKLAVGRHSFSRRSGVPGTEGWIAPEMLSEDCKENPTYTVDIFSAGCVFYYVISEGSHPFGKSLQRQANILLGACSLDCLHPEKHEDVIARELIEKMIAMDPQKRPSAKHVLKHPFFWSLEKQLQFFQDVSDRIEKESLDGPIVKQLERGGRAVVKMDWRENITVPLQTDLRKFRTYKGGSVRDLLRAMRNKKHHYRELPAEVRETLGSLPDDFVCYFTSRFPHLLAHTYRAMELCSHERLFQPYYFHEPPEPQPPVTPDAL
Method: as §1

[9] = target: MAP4K3 (Homo sapiens, UniProt Q8IVH8); conditions: 100 nM, 2 hours; Lys2
Sequence of MAP4K3 (Q8IVH8 whole entry): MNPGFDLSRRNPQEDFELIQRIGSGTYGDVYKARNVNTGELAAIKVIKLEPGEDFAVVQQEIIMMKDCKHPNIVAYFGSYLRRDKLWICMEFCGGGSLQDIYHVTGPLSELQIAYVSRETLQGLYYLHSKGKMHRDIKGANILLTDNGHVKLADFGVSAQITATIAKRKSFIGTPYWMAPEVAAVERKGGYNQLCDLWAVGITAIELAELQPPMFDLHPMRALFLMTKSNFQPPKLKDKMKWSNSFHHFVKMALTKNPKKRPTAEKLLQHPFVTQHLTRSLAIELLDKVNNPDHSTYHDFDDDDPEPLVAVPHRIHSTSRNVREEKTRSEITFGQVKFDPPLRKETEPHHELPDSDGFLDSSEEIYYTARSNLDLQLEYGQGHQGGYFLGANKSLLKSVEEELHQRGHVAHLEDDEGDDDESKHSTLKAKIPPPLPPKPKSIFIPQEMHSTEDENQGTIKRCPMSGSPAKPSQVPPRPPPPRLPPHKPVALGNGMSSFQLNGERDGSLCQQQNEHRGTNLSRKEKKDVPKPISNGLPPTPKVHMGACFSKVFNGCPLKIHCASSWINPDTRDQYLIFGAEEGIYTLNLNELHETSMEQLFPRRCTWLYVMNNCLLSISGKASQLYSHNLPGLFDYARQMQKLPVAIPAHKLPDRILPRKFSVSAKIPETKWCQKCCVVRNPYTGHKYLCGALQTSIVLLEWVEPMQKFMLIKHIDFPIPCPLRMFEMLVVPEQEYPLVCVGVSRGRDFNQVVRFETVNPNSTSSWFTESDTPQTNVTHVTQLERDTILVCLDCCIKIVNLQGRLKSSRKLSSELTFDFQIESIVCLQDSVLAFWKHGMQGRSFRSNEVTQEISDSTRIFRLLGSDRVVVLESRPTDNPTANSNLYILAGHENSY
Method: as §1

[10] = target: KSR1 (Homo sapiens, UniProt Q8IVT5); conditions: MOLM-13; 100 nM, 2 hours; Activation Loop; read-out: Inhibition vs DMSO
Method: as §1

[11] = target: T2, PIP4K2C (Homo sapiens, UniProt Q8TBX8); conditions: MOLM-13, 2 h, 100 nM, ATP, read-out: Inhibition vs DMSO
T2 sequence (Q8TBX8 1-421): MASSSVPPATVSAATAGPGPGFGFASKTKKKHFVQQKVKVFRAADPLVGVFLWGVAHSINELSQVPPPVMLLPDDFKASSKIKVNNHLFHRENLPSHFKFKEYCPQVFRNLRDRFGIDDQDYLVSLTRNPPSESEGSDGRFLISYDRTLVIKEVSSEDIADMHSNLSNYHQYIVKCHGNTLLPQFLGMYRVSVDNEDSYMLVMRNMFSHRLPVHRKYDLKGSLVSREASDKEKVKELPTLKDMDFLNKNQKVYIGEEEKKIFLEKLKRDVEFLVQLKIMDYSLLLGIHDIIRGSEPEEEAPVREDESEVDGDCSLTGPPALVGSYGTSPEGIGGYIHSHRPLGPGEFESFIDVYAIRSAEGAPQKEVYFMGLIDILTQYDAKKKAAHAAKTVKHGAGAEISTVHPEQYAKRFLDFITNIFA
Method: as §1

[12] = target: MLK3 (Homo sapiens, UniProt Q16584); conditions: 100 nM, 2 hours; Lys2
Method: as §1

[13] = target: TAK1 (Homo sapiens, UniProt O43318); conditions: MOLM-13; 100 nM, 2 hours; Lys2; read-out: Inhibition vs DMSO
Method: as §1

[14] = target: BTK (Homo sapiens, UniProt Q06187); conditions: 100 nM, 2 hours; Activation Loop
Method: as §1

[15] = target: CHK2 (Homo sapiens, UniProt O96017); conditions: MOLM-13, 2 h, 100 nM
Sequence of CHK2 (O96017 whole entry): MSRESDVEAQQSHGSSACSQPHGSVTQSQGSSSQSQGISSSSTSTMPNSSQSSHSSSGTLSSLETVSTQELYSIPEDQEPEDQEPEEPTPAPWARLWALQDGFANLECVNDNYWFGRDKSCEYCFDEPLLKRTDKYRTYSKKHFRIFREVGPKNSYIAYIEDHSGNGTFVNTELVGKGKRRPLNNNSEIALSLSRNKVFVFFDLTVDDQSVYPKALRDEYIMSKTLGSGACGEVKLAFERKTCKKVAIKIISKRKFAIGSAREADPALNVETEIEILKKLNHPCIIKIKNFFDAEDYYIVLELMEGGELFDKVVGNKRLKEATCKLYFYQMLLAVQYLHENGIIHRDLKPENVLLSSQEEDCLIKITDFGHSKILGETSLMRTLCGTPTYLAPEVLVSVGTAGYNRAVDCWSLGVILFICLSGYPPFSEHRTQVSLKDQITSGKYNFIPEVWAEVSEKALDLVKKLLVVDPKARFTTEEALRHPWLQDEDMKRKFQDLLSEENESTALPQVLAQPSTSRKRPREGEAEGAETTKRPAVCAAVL
Method: as §1

[16] = target: T3, JAK2 domain2 (Homo sapiens, UniProt O60674); conditions: 100 nM, 2 hours; Activation Loop
T3 construct: JAK2 domain2
Method: as §1

[17] = target: PFTAIRE1 (Homo sapiens, UniProt O94921); conditions: 100 nM, 2 hours; Lys1
Method: as §1

[18] = target: BRAF (Homo sapiens, UniProt P15056); conditions: MOLM-13; 100 nM, 2 hours; Lys2; read-out: Inhibition vs DMSO
Method: as §1

[19] = target: FRAP (Homo sapiens, UniProt P42345); conditions: MOLM-13; 100 nM, 2 hours; ATP; read-out: Inhibition vs DMSO
Method: as §1

[20] = target: T4, TLK1 (Homo sapiens, UniProt Q9UKI8); conditions: MOLM-13; 100 nM, 2 hours; Lys2; read-out: Inhibition vs DMSO
T4 sequence (Q9UKI8 1-766): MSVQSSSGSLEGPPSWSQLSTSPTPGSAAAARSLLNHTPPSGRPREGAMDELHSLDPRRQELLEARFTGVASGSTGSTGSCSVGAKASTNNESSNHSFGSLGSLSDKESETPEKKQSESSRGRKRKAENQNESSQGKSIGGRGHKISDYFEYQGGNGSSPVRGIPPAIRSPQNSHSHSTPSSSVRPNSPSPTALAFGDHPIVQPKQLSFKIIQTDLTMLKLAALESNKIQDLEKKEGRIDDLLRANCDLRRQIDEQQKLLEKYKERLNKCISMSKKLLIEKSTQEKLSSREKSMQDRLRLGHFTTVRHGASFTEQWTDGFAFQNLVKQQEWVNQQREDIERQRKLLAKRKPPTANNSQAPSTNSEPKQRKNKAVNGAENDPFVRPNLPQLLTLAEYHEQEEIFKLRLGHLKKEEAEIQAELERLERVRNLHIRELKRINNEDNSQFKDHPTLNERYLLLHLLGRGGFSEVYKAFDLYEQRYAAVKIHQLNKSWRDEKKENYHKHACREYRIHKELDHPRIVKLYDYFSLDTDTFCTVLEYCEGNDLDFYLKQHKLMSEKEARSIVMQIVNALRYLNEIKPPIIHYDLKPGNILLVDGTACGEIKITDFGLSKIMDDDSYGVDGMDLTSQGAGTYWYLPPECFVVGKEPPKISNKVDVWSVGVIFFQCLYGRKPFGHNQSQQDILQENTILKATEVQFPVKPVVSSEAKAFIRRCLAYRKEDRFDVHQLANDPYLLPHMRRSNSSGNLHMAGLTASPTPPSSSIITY
Method: as §1

[21] = target: HPK1 (Homo sapiens, UniProt Q92918); conditions: MOLM-13, 2 h, 100 nM
Sequence of HPK1 (Q92918 whole entry): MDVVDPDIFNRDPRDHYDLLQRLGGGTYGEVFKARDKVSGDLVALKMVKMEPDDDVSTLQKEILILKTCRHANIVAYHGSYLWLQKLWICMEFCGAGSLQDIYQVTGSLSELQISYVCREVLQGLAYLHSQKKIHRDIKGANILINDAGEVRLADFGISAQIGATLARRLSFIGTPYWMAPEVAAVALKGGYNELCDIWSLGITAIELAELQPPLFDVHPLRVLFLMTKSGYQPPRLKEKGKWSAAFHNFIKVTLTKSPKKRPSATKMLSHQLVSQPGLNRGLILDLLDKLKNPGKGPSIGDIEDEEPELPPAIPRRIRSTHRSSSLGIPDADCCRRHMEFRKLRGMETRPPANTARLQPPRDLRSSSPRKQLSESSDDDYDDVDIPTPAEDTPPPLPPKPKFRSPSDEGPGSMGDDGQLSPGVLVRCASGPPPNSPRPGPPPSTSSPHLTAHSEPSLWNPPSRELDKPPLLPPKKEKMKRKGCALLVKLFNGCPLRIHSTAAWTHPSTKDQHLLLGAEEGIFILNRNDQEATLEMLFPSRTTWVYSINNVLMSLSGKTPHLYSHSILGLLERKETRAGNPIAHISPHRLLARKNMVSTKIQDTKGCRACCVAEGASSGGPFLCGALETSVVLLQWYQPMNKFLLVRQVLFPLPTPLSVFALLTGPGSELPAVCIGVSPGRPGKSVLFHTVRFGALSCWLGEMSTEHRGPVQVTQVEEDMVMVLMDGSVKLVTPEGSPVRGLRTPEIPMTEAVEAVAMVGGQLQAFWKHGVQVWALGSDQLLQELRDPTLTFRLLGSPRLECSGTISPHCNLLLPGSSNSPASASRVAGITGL
Method: as §1

[22] = target: IRAK1 (Homo sapiens, UniProt P51617); conditions: MOLM-13; 100 nM, 2 hours; Lys2; read-out: Inhibition vs DMSO
Method: as §1

[23] = Lys1, read-out: Inhibition vs DMSO
[24] = Lys2, read-out: Inhibition vs DMSO

CN1CCN(Cc2ccc(Nc3ncc(Cl)c(Nc4ccccc4S(=O)(=O)N(C)C)n3)cc2)CC1 [TP-0903]
inhibition at 0.1 µM [1]: 60.1% | Inhibition vs DMSO ([2]; Lys1): 2.7% | Inhibition vs DMSO ([2]; Lys2): 16.8% | inhibition at 0.1 µM [3]: -9.6% | inhibition at 0.1 µM [4]: -5% | Inhibition vs DMSO [5]: 28.7% | inhibition at 0.1 µM [6]: -0.9% | inhibition at 0.1 µM [7, 23]: -22.2% | inhibition at 0.1 µM [7, 24]: -33.5% | inhibition at 0.1 µM [8]: -29.3% | Inhibition vs DMSO [9]: 45.4% | inhibition at 0.1 µM [10]: -11% | inhibition at 0.1 µM ([11]; TLVIKEVSSEDIADMHSNLSNYHQYIVK): -26% | inhibition at 0.1 µM ([11]; VKELPTLKDMDFLNK): -26.5% | Inhibition vs DMSO [12]: 20.5% | inhibition at 0.1 µM [13]: -2.8% | Inhibition vs DMSO [14]: 57.0% | inhibition at 0.1 µM [15, 23]: 11.3% | inhibition at 0.1 µM [15, 24]: -23.4% | Inhibition vs DMSO [16]: -68.6% | Inhibition vs DMSO [17]: 29.5% | inhibition at 0.1 µM [18]: 16.8% | inhibition at 0.1 µM [19]: -9.8% | inhibition at 0.1 µM [20]: 16% | inhibition at 0.1 µM [21, 23]: 58.7% | inhibition at 0.1 µM [21, 24]: 55.7% | inhibition at 0.1 µM [22]: 43.3%
